Tested on: locally advanced or metastatic KRAS G12C mutant NSCLC
Test: CodeBreaK 100 phase 2 portion, sotorasib monotherapy 960 mg QD (NCT03600883)
Type: in vivo, human
Details: among 46 confirmed responders; cutoff Sep. 1, 2020
Protocol: As discussed above, in phase 2 of the CodeBreaK 100 Trial (ClinicalTrials.gov identifier: NCT03600883) subjects with locally advanced or metastatic KRAS G12C mutant NSCLC were treated with the compound of Formula I as monotherapy at 960 mg QD.
• Subject has provided informed consent prior to initiation of any study specific activities/procedures. • Men or women: 18 years of age or older. • Pathologically documented, locally-advanced or metastatic malignancy with KRAS G1 2C 10 mutation identified through molecular testing. For phase 2. the mutation was confirmed by central testing prior to enrollment. • Subjects must have progressed after receiving anti-PD-1 or anti-PD-L1 immunotherapy (unless contraindicated) AND/OR platinum-based combination chemotherapy AND targeted therapy if actionable oncogenic driver mutations were identified (i.e., EGFR, ALK, and ROS1). Subjects must have received no more than 3 prior lines of therapy. The following guidance was used: • Adjuvant therapy was counted as a line of therapy if the subject progressed on or within 6 months of adjuvant therapy administration. • In locally advanced and unresectable NSCLC, disease progression on or within six months of end of prior curatively intended multimodal therapy was counted as a line of therapy.
• Active brain metastases from non-brain tumors.
Samples for biomarker analysis, e.g., to evaluate potential biomarkers that may correlate with treatment response, were collected.
For subjects with NSCLC an archival tumor sample (formalin fixed, paraffin embedded (FFPE) sample, collected within 5 years of enrollment) or pretreatment tumor biopsy (core needle or fine needle aspirates or excisional FFPE sample) was submitted prior to enrollment for central laboratory testing as well as subsequent exploratory biomarker analyses. […]
KRAS G12C mutation testing was conducted using a therascreen® KRAS RGQ PCR Kit (Qiagen). […] The mutations detected are: G12A, G12D, G12R, G12C, G12S, G12V, and G13D.
PD-L1 testing was conducted at the central labs using the Dako PharmDx 22C3 immunohistochemistry FDA-approved kit according to the instructions for use. […] All slides were reviewed and scored by a board-certified pathologist trained to score the PD-L1 IHC 22C3 pharrnDx assay.
STK11, KEAP1 , and TP53 mutation testing was conducted using the Resolution Bioscience Resolution ctDx Lung™ assay that included 24 genes (including those actionable in NSCLC). […] STK11/KEAP1/TP53 co-mutation analysis determined mutational status from baseline tissue and/or plasma samples, and mutations include nonsense, missense, frameshift, or splice site mutations and insertion/deletions predicted to be loss-of-function, and excluded variants of unknown significance. […]

Structure (SMILES): C=CC(=O)N1CCN(c2nc(=O)n(-c3c(C)ccnc3C(C)C)c3nc(-c4c(O)cccc4F)c(F)cc23)[C@@H](C)C1 [sotorasib, 6-fluoro-7-(2-fluoro-6-hydroxyphenyl)-(1M)-1-[4-methyl-2-(propan-2-yl)pyridin-3--yl]-4-[(2S)-2-methyl-4-(prop-2-enoyl)piperazin-1-yl]pyrido[2,3-d]pyrimidin-2(1H)-one]
- Duration of response (KM) - 25th percentile: 6.8 months
- Duration of response (KM) - 75th percentile: 8.4 months
- Duration of response (KM) - Max (+ for censored): 8.4 months
- Duration of response (KM) - Median: 8.4 months

From patent US20240091230A1, “USE OF KRAS G12C INHIBITOR IN TREATING CANCERS” (AMGEN INC., priority 2021, published 2024)
